The values below come from US11840686B2, “Modulation of prekallikrein (PKK) expression” (Ionis Pharmaceuticals, Inc., priority 2013, dated 2023).

Each structure is given as a SMILES string.

This assay concerns basal and captopril-induced vascular permeability. Nature of the assay: Evans Blue basal and captopril-induced vascular permeability in mice (Example 12). Format: in vivo, mouse. The note with it: ISIS 482584 40 mg/kg sc twice a week 4 weeks, HOE-140 30 μg ip. As for the experimental part:
Basal permeability is the level of vascular permeability occurring in the tissues of naïve, untreated mice. The effect of ISIS 482584 in the prevention of vascular permeability, either basal or captopril-induced, was evaluated.
Group 1 consisted of 8 mice and was treated with PBS administered subcutaneously twice a week for 4 weeks. No other treatment was administered to Group 1 which served as a control group to measure the basal levels of vascular permeability.
Group 2 consisted of 8 mice and was treated with PBS administered subcutaneously twice a week for 4 weeks. At the end of the treatment period, the mice were intraperitoneally administered 20 μg of captopril. Group 2 served as the negative control group for captopril-induced vascular permeability.
Group 3 consisted of 8 mice and was treated with PBS administered subcutaneously twice a week for 4 weeks. At the end of the treatment period, the mice were intraperitoneally administered 30 μg of HOE-140. Group 3 served as a positive control for inhibition of basal vascular permeability.
Group 4 consisted of 8 mice and was treated with PBS administered subcutaneously twice a week for 4 weeks. At the end of the treatment period, the mice were intraperitoneally administered 20 μg of captopril. The mice were also intraperitoneally administered 30 μg of HOE-140. Group 4 served as a positive control for inhibition of captopril-induced vascular permeability.
Group 5 consisted of 8 mice and was treated with 40 mg/kg of ISIS 482584 administered subcutaneously twice a week for 4 weeks. Group 5 served as an experimental treatment group for examining the effect of ISIS 482584 on basal vascular permeability.
Group 6 consisted of 8 mice and was treated with 40 mg/kg of ISIS 482584 administered subcutaneously twice a week for 4 weeks. At the end of the treatment period, the mice were intraperitoneally administered 20 μg of captopril. Group 6 served as an experimental treatment group for examining the effect of ISIS 482584 on captopril-induced vascular permeability.
All the groups were then injected with 30 mg/kg of Evans Blue solution. The mice were sacrificed 30 min after the Evans Blue solution administration and colons, feet, ears, and intestines were harvested.
The harvested tissues from the feet, colon, intestine, and ears were placed separately in formamide solution overnight to leach out the Evans Blue dye. The formamide solution containing feet and ear tissue was heated to 55° C. and left overnight.

In the case of `NC(N)=NCCC[C@@H](N)C(=O)N[C@@H](CCCN=C(N)N)C(=O)N1CCC[C@H]1C(=O)N1C[C@H](O)C[C@H]1C(=O)NCC(=O)N[C@@H](Cc1cccs1)C(=O)N[C@@H](CO)C(=O)N1Cc2ccccc2C[C@@H]1C(=O)N1[C@H](C(=O)N[C@@H](CCCN=C(N)N)C(=O)O)C[C@@H]2CCCC[C@@H]21` [HOE-140, Icatibant, reference compound], under “basal (captopril No)”, the “OD600 nm of Evans Blue dye, Colon” value was 0.18; the “OD600 nm of Evans Blue dye, Ears” value came to 0.03; the “OD600 nm of Evans Blue dye, Feet” value came out at 0.06; the “OD600 nm of Evans Blue dye, Intestine” value is 0.21. Moreover, under “captopril Yes”, the “OD600 nm of Evans Blue dye, Colon” value is on record as 0.29; the “OD600 nm of Evans Blue dye, Ears” value was 0.00; the “OD600 nm of Evans Blue dye, Feet” value is 0.03; the “OD600 nm of Evans Blue dye, Intestine” value was 0.14.
